Source: PubChem BioAssay AID1745844 (Carcinogenic Potency Database (CPDB), 2022)
Calls of active or inactive are those of the source. No rule for the calls is given here.

System: rodent lifetime carcinogenesis bioassay, tumor incidence TD50
Test: chronic cancer bioassays in animals – CPDB, compiled studies (AID 1745844)

CC[C@H](C)C(=O)O[C@H]1C[C@@H](C)C=C2C=C[C@H](C)[C@H](CC[C@@H]3C[C@@H](O)CC(=O)O3)[C@H]21
TD50 (mouse, strain Charles River CD1, females, by gavage, site: forestomach, lesion: squamous-cell carcinoma, dosed 92 weeks, study length 92 weeks): 38400 mg/kg/day | TD50 (mouse, strain Charles River CD1, females, by gavage, site: forestomach, lesion: squamous-cell papilloma, dosed 92 weeks, study length 92 weeks): 1020 mg/kg/day | TD50 (mouse, strain Charles River CD1, females, by gavage, site: liver, lesion: hepatocellular carcinoma, dosed 92 weeks, study length 92 weeks): 2240 mg/kg/day | TD50 (mouse, strain Charles River CD1, females, by gavage, site: liver, lesion: several types, types named in the paper, dosed 92 weeks, study length 92 weeks): 623 mg/kg/day | TD50 (mouse, strain Charles River CD1, females, by gavage, site: lung, lesion: adenocarcinoma, dosed 92 weeks, study length 92 weeks): 57400 mg/kg/day | TD50 (mouse, strain Charles River CD1, females, by gavage, site: lung, lesion: alveolar-cell adenoma, dosed 92 weeks, study length 92 weeks): 1220 mg/kg/day | TD50 (mouse, strain Charles River CD1, males, by gavage, site: forestomach, lesion: squamous-cell papilloma, dosed 92 weeks, study length 92 weeks): 8550 mg/kg/day | TD50 (mouse, strain Charles River CD1, males, by gavage, site: liver, lesion: hepatocellular carcinoma, dosed 92 weeks, study length 92 weeks): 708 mg/kg/day | TD50 (mouse, strain Charles River CD1, males, by gavage, site: liver, lesion: several types, types named in the paper, dosed 92 weeks, study length 92 weeks): 439 mg/kg/day | TD50 (rat, strain Charles River CD (Sprague-Dawley), females, by gavage, site: liver, lesion: hepatocellular adenoma, dosed 105 weeks, study length 105 weeks): 19900 mg/kg/day (inactive) | carcinogen call (rat, strain Charles River CD (Sprague-Dawley), males, by gavage, site: liver, lesion: hepatocellular adenoma, dosed 105 weeks, study length 105 weeks): negative (inactive) | TD50 (rat, strain Charles River CD (Sprague-Dawley), males, by gavage, site: liver, lesion: hepatocellular carcinoma, dosed 105 weeks, study length 105 weeks): 2330 mg/kg/day (inactive)

OC[P+](CO)(CO)CO
TD50 (mouse, strain B6C3F1, females, by gavage, site: any site (literature study), lesion: several types, types named in the paper, dosed 103 weeks, study length 104 weeks): 908 mg/kg/day (inactive) | TD50 (mouse, strain B6C3F1, females, by gavage, site: liver, lesion: hepatocellular adenoma + hepatocellular carcinoma + neoplastic nodule, dosed 103 weeks, study length 104 weeks): 200 mg/kg/day | TD50 (mouse, strain B6C3F1, females, by gavage, site: lung, lesion: alveolar/bronchiolar adenoma + alveolar/bronchiolar carcinoma, dosed 104 weeks, study length 105 weeks): 234 mg/kg/day | TD50 (mouse, strain B6C3F1, females, by gavage, site: multiple organs, lesion: malignant lymphoma, mixed type, dosed 104 weeks, study length 105 weeks): 15.7 mg/kg/day (inactive) | carcinogen call (mouse, strain B6C3F1, males, by gavage, site: any site (literature study), lesion: several types, types named in the paper, dosed 103 weeks, study length 104 weeks): negative (inactive) | TD50 (mouse, strain B6C3F1, males, by gavage, site: any site (literature study), lesion: several types, types named in the paper, dosed 104 weeks, study length 105 weeks): 47.3 mg/kg/day | TD50 (mouse, strain B6C3F1, males, by gavage, site: lung, lesion: alveolar/bronchiolar adenoma + alveolar/bronchiolar carcinoma, dosed 103 weeks, study length 104 weeks): 103 mg/kg/day | TD50 (mouse, strain B6C3F1, males, by gavage, site: lung, lesion: alveolar/bronchiolar adenoma + alveolar/bronchiolar carcinoma, dosed 104 weeks, study length 105 weeks): 78.5 mg/kg/day | TD50 (mouse, strain B6C3F1, males, by gavage, site: multiple organs, lesion: malignant lymphoma, histiocytic type + malignant lymphoma, mixed type + malignant lymphoma, lymphocytic type + malignant lymph, dosed 104 weeks, study length 105 weeks): 11.4 mg/kg/day (inactive) | TD50 (rat, strain Fischer 344, females, by gavage, site: any site (literature study), lesion: several types, types named in the paper, dosed 103 weeks, study length 104 weeks): 4.78 mg/kg/day (inactive) | TD50 (rat, strain Fischer 344, females, by gavage, site: any site (literature study), lesion: several types, types named in the paper, dosed 104 weeks, study length 106 weeks): 23.3 mg/kg/day (inactive) | TD50 (rat, strain Fischer 344, males, by gavage, site: any site (literature study), lesion: several types, types named in the paper, dosed 103 weeks, study length 104 weeks): 14.7 mg/kg/day | TD50 (rat, strain Fischer 344, males, by gavage, site: any site (literature study), lesion: several types, types named in the paper, dosed 104 weeks, study length 106 weeks): 1.78 mg/kg/day | TD50 (rat, strain Fischer 344, males, by gavage, site: liver, lesion: hepatocellular adenoma + hepatocellular carcinoma + neoplastic nodule, dosed 103 weeks, study length 104 weeks): 24.5 mg/kg/day | TD50 (rat, strain Fischer 344, males, by gavage, site: liver, lesion: hepatocellular adenoma + hepatocellular carcinoma + neoplastic nodule, dosed 104 weeks, study length 106 weeks): 12.4 mg/kg/day | TD50 (rat, strain Fischer 344, males, by gavage, site: multiple organs, lesion: mononuclear-cell leukemia, dosed 104 weeks, study length 106 weeks): 2.42 mg/kg/day (inactive) | TD50 (rat, strain Fischer 344, males, by gavage, site: pituitary gland, anterior, lesion: adenoma, NOS + carcinoma, NOS, dosed 104 weeks, study length 106 weeks): 3.3 mg/kg/day | TD50 (rat, strain Fischer 344, males, by gavage, site: pituitary gland, anterior, lesion: adenoma, NOS, dosed 104 weeks, study length 106 weeks): 3.56 mg/kg/day | TD50 (rat, strain Fischer 344, males, by gavage, site: subcutaneous tissue, lesion: fibroma, dosed 103 weeks, study length 104 weeks): 24.9 mg/kg/day (inactive)

O=C1C(c2[nH]c3ccc(S(=O)(=O)O)cc3c2O)=Nc2ccc(S(=O)(=O)O)cc21
carcinogen call (mouse, strain Charles River CD1, females, in feed, site: liver, lesion: nodular hyperplasia, dosed 84 weeks, study length 84 weeks): negative (inactive) | carcinogen call (mouse, strain Charles River CD1, females, in feed, site: lung, lesion: adenoma, dosed 84 weeks, study length 84 weeks): negative (inactive) | TD50 (mouse, strain Charles River CD1, males, in feed, site: liver, lesion: nodular hyperplasia, dosed 84 weeks, study length 84 weeks): 20200 mg/kg/day (inactive) | carcinogen call (mouse, strain Charles River CD1, males, in feed, site: lung, lesion: adenoma, dosed 84 weeks, study length 84 weeks): negative (inactive) | TD50 (mouse, strain Charles River CD (Sprague-Dawley), females, in feed, site: any site (literature study), lesion: malignant tumor, dosed 100 weeks, study length 100 weeks): 33900 mg/kg/day (inactive) | carcinogen call (mouse, strain Charles River CD (Sprague-Dawley), females, in feed, site: any site (literature study), lesion: several types, types named in the paper, dosed 100 weeks, study length 100 weeks): negative (inactive) | TD50 (mouse, strain Charles River CD (Sprague-Dawley), males, in feed, site: any site (literature study), lesion: malignant tumor, dosed 95 weeks, study length 95 weeks): 57100 mg/kg/day (inactive) | TD50 (mouse, strain Charles River CD (Sprague-Dawley), males, in feed, site: any site (literature study), lesion: several types, types named in the paper, dosed 95 weeks, study length 95 weeks): 23400 mg/kg/day (inactive) | TD50 (rat, strain Osborne-Mendel, both sexes, in feed, site: any site (literature study), lesion: several types, types named in the paper, dosed 104 weeks, study length 104 weeks): 5430 mg/kg/day (inactive)
